Data published in US11884627B2, “Compounds and compositions for treating conditions associated with LPA receptor activity” (Lhotse Bio, Inc., priority 2022, dated 2024).
Read-outs that look alike come from different tables or passages of the source.

Target: T1, human LPA1 (Homo sapiens, UniProt Q92633)
T1 construct: expressed in transfected cells; host or cells: CHO-K1
Assay: In vitro LPA1 calcium flux antagonist assay - Bioduro protocol
Assay type: cell-based
Settings: CHO-K1 cells overexpressing human LPA1 and G15a, LPA challenge at EC80
In short: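 Calcium mobilization read on FLIPR after EC80 LPA was added to compound-pretreated (30 min) CHO-K1 cells co-expressing human LPA1 and G15a. Cells were starved 4 h and dye-loaded with Fluo-8 AM/2.5 mM probenecid in HBSS-Hepes; inhibition normalized between DMSO and LPA-control RFU.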

[1] = calcium mobilization on FLIPR Tetra, read-out: IC50
[2] = Table B3, read-out: Activity (IC50 class)

T1 sequence (Q92633 whole entry): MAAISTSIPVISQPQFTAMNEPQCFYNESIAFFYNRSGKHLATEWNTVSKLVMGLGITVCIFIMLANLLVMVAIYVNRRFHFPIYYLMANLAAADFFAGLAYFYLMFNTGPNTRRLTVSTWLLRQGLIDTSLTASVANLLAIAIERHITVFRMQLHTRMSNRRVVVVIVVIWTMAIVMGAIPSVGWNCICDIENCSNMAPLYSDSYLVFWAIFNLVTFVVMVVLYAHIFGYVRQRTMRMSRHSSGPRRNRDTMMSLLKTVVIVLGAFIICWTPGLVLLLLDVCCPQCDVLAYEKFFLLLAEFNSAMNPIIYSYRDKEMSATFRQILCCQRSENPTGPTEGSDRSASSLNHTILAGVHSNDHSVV

COc1cc(-c2ccc(NC3(C(=O)O)CCOCC3)cc2COC2CCCC2)c(OC)c(OC)c1C [Compound 220]
IC50 [1]: 81.6 nM
IC50 [2]: 100 to 1000 nM

COc1cc(-c2c(F)cc(NC3(C(=O)O)CCOCC3)cc2COC2CCCC2)c(F)c(OC)c1C [Compound 168]
IC50 [1]: 27.6 nM
IC50 [2]: < 100 nM

COc1cc(-c2c(C)cc(NC3(C(=O)O)CCOCC3)cc2COC2CCCC2)cc(OC)c1C [Compound 141, 4-((2-((cyclopentyloxy)methyl)-3′,5′-dimethoxy-4′,6-dimethyl-[1,1′-biphenyl]-4-yl)amino) tetrahydro-2H-pyran-4-carboxylic acid]
IC50 [1]: 24.5 nM
IC50 [2]: < 100 nM

COc1cc(-c2ccc(OC3(C(=O)O)CCOCC3)cc2COC2CCCC2)c(Cl)c(OC)n1 [Compound 230]
IC50 [1]: 139 nM
IC50 [2]: 100 to 1000 nM

COc1cc(-c2ccc(NC3(C(=O)O)CCOCC3)cc2COC2CC3CC3C2)cc(OC)c1C (stereo not shown) [Compound 182, 4-((2-((bicyclo[3.1.0]hexan-3-yloxy)methyl)-3′,5′-dimethoxy-4′-methyl-[1,1′-biphenyl]-4-yl)amino)tetrahydro-2H-pyran-4-carboxylic acid]
IC50 [1]: 9.7 nM
IC50 [2]: < 100 nM

COc1cc(OC2CC2)cc(-c2ccc(NC3(C(=O)O)CCOCC3)cc2COC2CCCC2)c1 [Compound 331]
IC50 [1]: 9.37 nM
IC50 [2]: < 100 nM

COc1cc(-c2ccc(OC3(C(=O)O)CCOCC3)cc2CO[C@H]2CCOC2)c(F)c(OC)c1C [Compound 281]
IC50 [1]: 110 nM
IC50 [2]: 100 to 1000 nM

CC(C)COc1cccc(-c2ccc(NC3(C(=O)O)CCOCC3)cc2COC2CCCC2)c1F [Compound 277]
IC50 [1]: 72.7 nM
IC50 [2]: < 100 nM

CCOc1cc(-c2ccc(NC3(C(=O)O)CCOCC3)cc2COC2CCCC2)cc(OC)c1C [Compound 330]
IC50 [1]: 9.53 nM
IC50 [2]: < 100 nM

COc1cc(-c2ccc(NC3(C(=O)O)CCOCC3)cc2COC2CCC2)c(F)c(OC)c1C [Compound 263]
IC50 [1]: 60.4 nM
IC50 [2]: < 100 nM

CCOc1cc(OC)cc(-c2ccc(C3(C(=O)O)CC3)cc2COC2CC2)c1F [Compound 382]
IC50 [1]: > 10000 nM
IC50 [2]: > 1000 nM

CCCCOCc1cc(NC2(C(=O)O)CCOCC2)ccc1-c1cc(OC)c(C)c(OC)c1C [Compound 401]
IC50 [1]: 5.71 nM
IC50 [2]: < 100 nM

COC(=O)N1CCC(Nc2cc(C)c(-c3cc(OC)ccn3)c(COC3CCCC3)c2)(C(=O)O)CC1 [Compound 171]
IC50 [1]: > 10000 nM
IC50 [2]: > 1000 nM

COc1cc(-c2ccc(NC3(C(=O)O)CCOCC3)cc2COC2COc3ccccc32)cc(OC)c1C (single isomer, unassigned) [Compound 216]
IC50 [1]: 18.6 nM
IC50 [2]: < 100 nM

COc1c(C(C)OC)ccc(-c2ccc(NC3(C(=O)O)CCOCC3)cc2COC2CCCC2)c1C (single isomer, unassigned) [Compound 242]
IC50 [1]: 266 nM
IC50 [2]: 100 to 1000 nM

COc1cc(OC)c(F)c(-c2ccc(NC3(C(=O)O)CCOCC3)cc2CCC2CCCC2)c1 [Compound 228]
IC50 [1]: 2.63 nM
IC50 [2]: < 100 nM

COC(=O)N1CCCC(Nc2cc(C)c(-c3cc(OC)cc(OC)c3)c(COC3CCCC3)c2)(C(=O)O)C1 (stereo not shown) [Compound 210]
IC50 [1]: > 10000 nM
IC50 [2]: > 1000 nM

CCOc1cccc(-c2ccc(NC3(C(=O)O)CCOCC3)cc2CCC2CCOC2)c1F (stereo not shown) [Compound 267]
IC50 [1]: 68 nM
IC50 [2]: < 100 nM

CCc1c(-c2ccc(OC3(C(=O)O)CCOCC3)cc2COC2CCCC2)cc(OC)c(C)c1OC [Compound 194]
IC50 [1]: 79.8 nM
IC50 [2]: < 100 nM

COc1cc(-c2ccc(NC3(C(=O)O)CN(C(C)=O)C3)cc2COC2Cc3ccccc3C2)cc(OC)c1C [Compound 128]
IC50 [1]: 31.4 nM
IC50 [2]: < 100 nM

CCOc1c(C)ccc(-c2ccc(NC3(C(=O)O)CCOCC3)cc2COCC(C)C)c1C [Compound 394]
IC50 [1]: 97.6 nM
IC50 [2]: < 100 nM

COc1cc(-c2ccc(CC3(C(=O)O)CCOCC3)cc2COC2CCCC2)c(Cl)c(OC)c1C [Compound 236]
IC50 [1]: 4710 nM
IC50 [2]: > 1000 nM

COc1cc(OC)c(C(F)F)c(-c2ccc(NC3(C(=O)O)CCOCC3)cc2COC2CCCC2)c1 [Compound 320]
IC50 [1]: 12.1 nM
IC50 [2]: < 100 nM

COc1cc(-c2ccc(OCC3(C(=O)O)CCOCC3)cc2COC2CCCC2)c(F)c(OC)c1C [Compound 232]
IC50 [1]: 756 nM
IC50 [2]: 100 to 1000 nM

COc1cc(-c2ccc(OC3(C(=O)O)CCOCC3)cc2CO[C@@H]2CCOC2)c(F)c(OC)c1C [Compound 247]
IC50 [1]: 1610 nM
IC50 [2]: > 1000 nM

COc1cc(-c2c(COC3CCCC3)cc(NC3(C(=O)O)CCOCC3)cc2C(F)F)cc(OC)c1C [Compound 273]
IC50 [1]: 17.1 nM
IC50 [2]: < 100 nM

COc1cc(-c2ccc(OC3(C(=O)O)CCOCC3)cc2COC2CC2)c(Cl)c(OC)c1C [Compound 365]
IC50 [1]: 18.7 nM
IC50 [2]: < 100 nM

COc1ccc(C)c(-c2ccc(NC3(C(=O)O)CCOCC3)cc2COC2CCCC2)c1 [Compound 173]
IC50 [1]: 314 nM
IC50 [2]: 100 to 1000 nM

CCCc1cccc(-c2ccc(NC3(C(=O)O)CCOCC3)cc2COC2CC2)c1F [Compound 326]
IC50 [1]: 124 nM
IC50 [2]: 100 to 1000 nM

COc1cc(-c2ccc(NC3(C(=O)O)CCOCC3)cc2COC2CCCC2)c(F)c(OC)c1C [Compound 165]
IC50 [1]: 10.9 nM
IC50 [2]: < 100 nM

CCc1cccc(-c2ccc(NC3(C(=O)O)CCOCC3)cc2COC2CC2)c1F [Compound 327]
IC50 [1]: 412 nM
IC50 [2]: 100 to 1000 nM

COc1cc(-c2ccc(NC3(C(=O)O)CC3)cc2COC2Cc3ccccc3C2)cc(OC)c1C(C)=O [Compound 121, 1-({4′-acetyl-2-[(2,3-dihydro-1H-inden-2-yloxy)methyl]-3′,5′-dimethoxy-[1,1′-biphenyl]-4-yl}amino)cyclopropane-1-carboxylic acid]
IC50 [1]: 13.5 nM
IC50 [2]: < 100 nM

COc1cc(-c2ccc(NC3(C(=O)O)CCOCC3)cc2COC2CC2)c(C)c(OC)c1C [Compound 318]
IC50 [1]: 9.47 nM
IC50 [2]: < 100 nM

COc1cccc(-c2ccc(NC3(C(=O)O)CCOCC3)cc2COC2CCCC2)c1C [Compound 172]
IC50 [1]: 82.1 nM
IC50 [2]: < 100 nM

CCOc1cccc(-c2ccc(NC3(C(=O)O)CCC(F)(F)CC3)cc2COC2CC2)c1Cl [Compound 385]
IC50 [1]: 0.633 nM
IC50 [2]: < 100 nM

CCOc1cc(OC)cc(-c2ccc(NC3(C(=O)O)CCOCC3)cc2COC2CCCC2)n1 [Compound 363]
IC50 [1]: 4850 nM
IC50 [2]: > 1000 nM

CCOCc1cc(NC2(C(=O)O)CCOCC2)ccc1-c1cc(OC)c(C)c(OC)c1F [Compound 350]
IC50 [1]: 4320 nM
IC50 [2]: > 1000 nM

CCOc1cc(OC)cc(-c2ccc(NC3(C(=O)O)CC(F)(F)C3)cc2COC2CC2)c1F [Compound 367]
IC50 [1]: 33.2 nM
IC50 [2]: < 100 nM

COc1cc(-c2ccc(NC3(C(=O)O)CCCC3)cc2COC2Cc3ccccc3C2)cc(OC)c1C [Compound 112]
IC50 [1]: 188 nM
IC50 [2]: 100 to 1000 nM

COc1cc(-c2c(C)cc(NC3(C(=O)O)CCOCC3)cc2COC2CCCC2)nc(OC)c1C [Compound 253, 4-((3-((cyclopentyloxy)methyl)-4-(4,6-dimethoxy-5-methylpyridin-2-yl)-5-methylphenyl)amino)tetrahydro-2H-pyran-4-carboxylic acid]
IC50 [1]: 54.3 nM
IC50 [2]: < 100 nM

COc1cc(-c2ccc(NC3(C(=O)O)CCOCC3)cc2COC2CCCC2)c(F)c(OC)c1C(C)=O [Compound 271]
IC50 [1]: 21.4 nM
IC50 [2]: < 100 nM
